{"source": "patent US7732471B2", "about": "“6-oxazol-4-ylmetholmethoxy-alko-alkoxymethyl substituted benzoic acid derivatives forming peroxisome proliferator—activated receptor (PPAR) ligands, process for their preparation and methods of use thereof” (Sanofi-Aventis, priority 2005, dated 2010)", "key": {"human PPARgamma": {"target": "T1, human PPARgamma (Homo sapiens, UniProt P37231)", "T1 construct": "human PPARgamma receptor (amino acids I152-Y475); expressed in transfected cells; host or cells: HEK cells, transiently transfected with pcDNA3-GAL4-humanPPARgammaLBD", "T1 sequence (P37231 182-505 limits assumed)": "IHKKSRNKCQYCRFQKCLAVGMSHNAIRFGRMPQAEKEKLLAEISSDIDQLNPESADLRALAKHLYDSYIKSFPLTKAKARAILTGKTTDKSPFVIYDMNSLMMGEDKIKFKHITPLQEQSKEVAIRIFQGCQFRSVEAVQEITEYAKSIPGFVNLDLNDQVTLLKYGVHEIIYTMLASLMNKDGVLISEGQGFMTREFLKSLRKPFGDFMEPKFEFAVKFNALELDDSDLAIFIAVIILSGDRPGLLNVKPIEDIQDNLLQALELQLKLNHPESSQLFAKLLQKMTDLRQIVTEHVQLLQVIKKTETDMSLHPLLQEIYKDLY", "test": "Cellular PPARgamma assay (transiently transfected HEK cells, luciferase reporter)", "type": "cell-based", "settings": "HEK cells transiently transfected with GAL4-humanPPARgammaLBD, 48 h incubation, firefly/Renilla luciferase ratio", "description": "Determination of EC50 Values of PPAR Agonists in the Cellular PPARgamma Assay\nA transient transfection system is employed to determine the cellular PPARgamma activity of PPAR agonists. It is based on the use of a luciferase reporter plasmid (pGL3basic-5xGAL4-TK) and of a PPARgamma expression plasmid (pcDNA3-GAL4-humanPPARgammaLBD). Both plasmids are transiently transfected into human embryonic kidney cells (HEK cells). There is then expression in these cells of the fusion protein GAL4-humanPPARgammaLBD which binds to the GAL4 binding sites of the reporter plasmid. In the presence of a PPARgamma-active ligand, the activated fusion protein GAL4-humanPPARgammaLBD induces expression of the luciferase reporter gene, which can be detected in the form of a chemiluminescence signal after addition of a luciferase substrate. As a difference from the stably transfected PPARalpha reporter cell line, in the cellular PPARgamma assay the two components (luciferase reporter plasmid and PPARgamma expression plasmid) are transiently transfected into HEK cells because stable and permanent expression of the PPARgamma fusion protein is cytotoxic.\nThe luciferase reporter plasmid pGL3basic-5xGAL4-TK is based on the vector pGL3basic from Promega. The reporter plasmid is prepared by cloning five binding sites of the yeast transcription factor GAL4 (each binding site with the sequence 5′-CTCGGAGGACAGTACTCCG-3′), together with a 160 bp-long thymidine kinase promoter section (Genbank Accession #AF027128) 5′-upstream into pGL3basic. 3′-downstream of the thymidine kinase promoter is the complete luciferase gene from Photinus pyralis (Genbank Accession #M15077), which is already a constituent of the plasmid pGL3basic used. The cloning and sequencing of the reporter plasmid pGL3basic-5xGAL4-TK took place in analogy to the description in Sambrook J. et. al. (Molecular cloning, Cold Spring Harbor Laboratory Press, 1989).\nThe PPARgamma expression plasmid pcDNA3-GAL4-humanPPARgammaLBD was prepared by first cloning the cDNA coding for amino acids 1-147 of the yeast transcription factor GAL4 (Genbank Accession #P04386) into the plasmid pcDNA3 (from Invitrogen) 3′-downstream of the cytomegalovirus promoter. Subsequently, the cDNA of the ligand-binding domain (LBD) of the human PPARgamma receptor (amino acids I152-Y475; Accession #g1480099) 3′-downstream of the GAL4 DNA binding domain was cloned. Cloning and sequencing of the PPARgamma expression plasmid pcDNA3-GAL4-humanPPARgammaLBD again took place in analogy to the description in Sambrook J. et. al. (Molecular cloning, Cold Spring Harbor Laboratory Press, 1989). Besides the luciferase reporter plasmid pGL3basic-5xGAL4-TK and the PPARgamma expression plasmid pcDNA3-GAL4-humanPPARgammaLBD, also used for the cellular PPARgamma assay are the reference plasmid pRL-CMV (from Promega) and the plasmid pBluescript SK(+) from Stratagene. All four plasmids were prepared using a plasmid preparation kit from Qiagen, which ensured a plasmid quality with a minimal endotoxin content, before transfection into HEK cells.\nThe activity of PPARgamma agonists is determined in a 4-day assay which is described below. Before the transfection, HEK cells are cultivated in DMEM medium (#41965-039, Invitrogen) which is mixed with the following additions: 10% FCS (#16000-044, Invitrogen), 1% penicillin-streptomycin solution (#15140-122, Invitrogen) and 2 mM L-glutamine (#25030-024, Invitrogen).\nA transfection mixture (solution A) which contains all four plasmids previously described in a DMEM medium, is prepared. The following amounts are used to make up 3 ml of solution A for each 96-well microtiter plate for an assay: 2622 μl of antibiotic- and serum-free DMEM medium (#41965-039, Invitrogen), 100 μl of reference plasmid pRL-CMV (1 ng/μl), 100 μl of luciferase reporter plasmid pGL3basic-5xGAL4-TK (10 ng/μl), 100 μl of PPARgamma expression plasmid pcDNA3-GAL4-humanPPARgammaLBD (100 ng/μl) and 78 μl of plasmid pBluescript SK(+) (500 ng/μl). […]"}, "human PPARalpha": {"target": "T2, human PPARalpha (Homo sapiens, UniProt Q07869)", "T2 construct": "human PPARalpha receptor (amino acids S167-Y468); expressed in transfected cells; host or cells: HEK cells, stably transfected (pcDNA3 construct)", "T2 sequence (Q07869 167-468)": "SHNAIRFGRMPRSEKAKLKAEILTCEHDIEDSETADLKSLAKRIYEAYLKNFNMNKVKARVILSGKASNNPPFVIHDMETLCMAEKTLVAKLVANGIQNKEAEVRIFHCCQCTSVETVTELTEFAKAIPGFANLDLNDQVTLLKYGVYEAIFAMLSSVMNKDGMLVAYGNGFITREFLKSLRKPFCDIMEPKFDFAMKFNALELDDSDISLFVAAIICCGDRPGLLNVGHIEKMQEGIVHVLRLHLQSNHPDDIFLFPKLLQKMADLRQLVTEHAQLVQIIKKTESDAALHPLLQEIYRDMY", "test": "Cellular PPARalpha assay (stably transfected HEK luciferase reporter cell line)", "type": "cell-based", "settings": "PPARalpha reporter cell line (HEK, GR-GAL4-humanPPARalpha-LBD), 24 h incubation", "experimental": "Determination of EC50 Values of PPAR Agonists in the Cellular PPARalpha Assay\nThe potency of substances which bind to human PPARalpha and activate it in an agonistic manner is analyzed using a stably transfected HEK cell line (HEK=human embryonic kidney) which is referred to here as PPARalpha reporter cell line. It contains two genetic elements, a luciferase reporter element (pdeltaM-GAL4-Luc-Zeo) and a PPARalpha fusion protein (GR-GAL4-humanPPARalpha-LBD) which mediates expression of the luciferase reporter element depending on a PPARalpha ligand. The stably and constitutively expressed fusion protein GR-GAL4-humanPPARalpha-LBD binds in the cell nucleus of the PPARalpha reporter cell line via the GAL4 protein portion to the GAL4 DNA binding motifs 5′-upstream of the luciferase reporter element which is stably integrated in the genome of the cell line. There is only little expression of the luciferase reporter gene without addition of a PPARalpha ligand if fatty acid-depleted fetal calf serum (cs-FCS) is used in the assay. PPARalpha ligands bind and activate the PPARalpha fusion protein and thereby bring about expression of the luciferase reporter gene. The luciferase which is formed can be detected by means of chemiluminescence via an appropriate substrate.\nThe PPARalpha reporter cell line was prepared in two steps. Firstly, the luciferase reporter element was constructed and stably transfected into HEK cells. For this purpose, five binding sites of the yeast transcription factor GAL4 (in each case 5′-CGGAGTACTGTCCTCCGAG-3′) were cloned in 5′-upstream of a 68 bp-long minimal MMTV promoter (Genbank Accession #V01175). The minimal MMTV promoter section contains a CCAAT box and a TATA element in order to enable efficient transcription by RNA polymerase II. The cloning and sequencing of the GAL4-MMTV construct took place in analogy to the description of Sambrook J. et. al. (Molecular cloning, Cold Spring Harbor Laboratory Press, 1989). Then the complete Photinus pyralis luciferase gene (Genbank Accession #M15077) was cloned in 3′-downstream of the GAL4-MMTV element. After sequencing, the luciferase reporter element consisting of five GAL4 binding sites, MMTV promoter and luciferase gene was subcloned into a plasmid which confers zeozin resistance in order to obtain the plasmid pdeltaM-GAL4-Luc-Zeo. This vector was transfected into HEK cells in accordance with the statements in Ausubel, F. M. et al. (Current protocols in molecular biology, Vol. 1-3, John Wiley & Sons, Inc., 1995).\nIn a second step, the PPARalpha fusion protein (GR-GAL4-humanPPARalpha-LBD) was introduced into the stable cell clone described. For this purpose, initially the cDNA coding for the N-terminal 76 amino acids of the glucocorticoid receptor (Genbank Accession #P04150) was linked to the cDNA section coding for amino acids 1-147 of the yeast transcription factor GAL4 (Genbank Accession #P04386). The cDNA of the ligand-binding domain of the human PPARalpha receptor (amino acids S167-Y468; Genbank Accession #S74349) was cloned in at the 3′ end of this GR-GAL4 construct. The fusion construct prepared in this way (GR-GAL4-humanPPARalpha-LBD) was subcloned into the plasmid pcDNA3 (from Invitrogen) in order to enable constitutive expression therein by the cytomegalovirus promoter. This plasmid was linearized with a restriction endonuclease and stably transfected into the previously described cell clone containing the luciferase reporter element. The finished PPARalpha reporter cell line which contains a luciferase reporter element and constitutively expresses the PPARalpha fusion protein (GR-GAL4-humanPPARalpha-LBD) was isolated by selection with zeozin (0.5 mg/ml) and G418 (0.5 mg/ml).\nThe activity of PPARalpha agonists is determined in a 3-day assay which is described below: […]"}}}
{"smiles": "Cc1cccc(COCCCCOCc2nc(-c3ccc(-c4ccccc4)cc3)oc2C)c1C(=O)O", "note": "[Example 33, 2-Methyl-6-[4-(2-p-biphenyl-5-methyloxazol-4-ylmethoxy)butoxymethyl]benzoic acid]", "values": [{"measurement": "EC50", "setting": "human PPARgamma", "result": 14, "unit": "nM"}, {"measurement": "EC50", "setting": "human PPARalpha", "result": 21, "unit": "nM"}]}
{"smiles": "COc1ccc(-c2nc(COCCCOCc3cccc(C)c3C(=O)O)c(C)o2)cc1OC", "note": "[Example 11, 2-Methyl-6-{3-[5-methyl-2-(3,4-dimethoxyphenyl)oxazol-4-ylmethoxy]propoxymethyl}-benzoic acid]", "values": [{"measurement": "EC50", "setting": "human PPARgamma", "result": 630, "unit": "nM"}, {"measurement": "EC50", "setting": "human PPARalpha", "result": 8.7, "unit": "nM"}]}
{"smiles": "COc1cccc(-c2nc(COCCCCOCc3cccc(C)c3C(=O)O)c(C)o2)c1", "note": "[Example 31, 2-Methyl-6-{4-[2-(3-methoxyphenyl)-5-methyloxazol-4-ylmethoxy]butoxymethyl}-benzoic acid]", "values": [{"measurement": "EC50", "setting": "human PPARgamma", "result": 17, "unit": "nM"}, {"measurement": "EC50", "setting": "human PPARalpha", "result": 1.4, "unit": "nM"}]}
{"smiles": "Cc1cccc(COCCCOCc2nc(-c3ccc(-c4ccccc4)cc3)oc2C)c1C(=O)O", "note": "[Example 3, 2-Methyl-6-[3-(5-methyl-2-p-biphenyloxazol-4-ylmethoxy)propoxymethyl]benzoic acid]", "values": [{"measurement": "EC50", "setting": "human PPARgamma", "result": 150, "unit": "nM"}, {"measurement": "EC50", "setting": "human PPARalpha", "result": 4.2, "unit": "nM"}]}
{"smiles": "Cc1ccc(-c2nc(COCCCOCc3cccc(C)c3C(=O)O)c(C3CCCCC3)o2)cc1", "note": "[Example 22, 2-Methyl-6-{3-[5-cyclohexyl-2-p-tolyloxazol-4-ylmethoxy]propoxymethyl}benzoic acid]", "values": [{"measurement": "EC50", "setting": "human PPARgamma", "result": 710, "unit": "nM"}, {"measurement": "EC50", "setting": "human PPARalpha", "result": 22, "unit": "nM"}]}
{"smiles": "COc1cccc(-c2nc(COCC(C)(C)COCc3cccc(C)c3C(=O)O)c(C)o2)c1", "note": "[Example 27, 2-{3-[2-(3-Methoxyphenyl)-5-methyloxazol-4-ylmethoxy]-2,2-dimethylpropoxymethyl}-6-methylbenzoic acid]", "values": [{"measurement": "EC50", "setting": "human PPARgamma", "result": 390, "unit": "nM"}, {"measurement": "EC50", "setting": "human PPARalpha", "result": 13, "unit": "nM"}]}
{"smiles": "Cc1cccc(COCCCOCc2coc(-c3ccccc3)n2)c1C(=O)O", "note": "[*, reference compound]", "values": [{"measurement": "EC50", "setting": "human PPARgamma", "result": "> 10000", "unit": "nM"}, {"measurement": "EC50", "setting": "human PPARalpha", "result": 1, "unit": "nM"}]}
{"smiles": "CCc1oc(-c2cccc(OC)c2)nc1COCCCOCc1cccc(C)c1C(=O)O", "note": "[Example 17]", "values": [{"measurement": "EC50", "setting": "human PPARgamma", "result": 91, "unit": "nM"}, {"measurement": "EC50", "setting": "human PPARalpha", "result": 3.7, "unit": "nM"}]}
{"smiles": "Cc1cccc(COCCCOCc2nc(-c3ccc(Oc4ccccc4)cc3)oc2C)c1C(=O)O", "note": "[Example 8, 2-Methyl-6-{3-[5-methyl-2-(4-phenoxyphenyl)oxazol-4-ylmethoxy]propoxymethyl}-benzoic acid]", "values": [{"measurement": "EC50", "setting": "human PPARgamma", "result": 40, "unit": "nM"}, {"measurement": "EC50", "setting": "human PPARalpha", "result": 11, "unit": "nM"}]}
{"smiles": "Cc1cccc(COCCCCOCc2nc(-c3cccc(C(F)(F)F)c3)oc2C(C)C)c1C(=O)O", "note": "[Example 32, 2-{4-[5-Isopropyl-2-(3-trifluoromethylphenyl)oxazol-4-ylmethoxy]butoxymethyl}-6-methylbenzoic acid]", "values": [{"measurement": "EC50", "setting": "human PPARgamma", "result": 72, "unit": "nM"}, {"measurement": "EC50", "setting": "human PPARalpha", "result": 1.6, "unit": "nM"}]}
{"smiles": "Cc1ccc(-c2nc(COCCCOCc3cccc(C)c3C(=O)O)c(-c3ccccc3)o2)cc1", "note": "[Example 23, 2-Methyl-6-[3-(5-phenyl-2-p-tolyloxazol-4-ylmethoxy)propoxymethyl]benzoic acid]", "values": [{"measurement": "EC50", "setting": "human PPARgamma", "result": 1800, "unit": "nM"}, {"measurement": "EC50", "setting": "human PPARalpha", "result": 88, "unit": "nM"}]}
